Source: US9481670B2, “Triazine compounds” (Sphaera Pharma PTE. Ltd., priority 2011, dated 2016)

These compounds were tested against T1, PI3K alpha (Homo sapiens, UniProt P42336) (assay: P110 Alpha TR-FRET Assay (PI3K alpha kinase assay, HTRF Transcreener ADP Assay)). Conditions: PI3K (WT).
T1 construct: purchased Millipore Upstate
Type: biochemical
Method in brief: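 Enzyme (50 ng) and compound were preincubated 20 min in HEPES pH 7.5 buffer containing MgCl2, DTT and vanadate before 10 μM ATP plus 5 μM PIP2 substrate was added for 20 min. ADP produced was quantified by TR-FRET (ADP-d2, anti-ADP cryptate, 1 h).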

T1 sequence (P42336 whole entry): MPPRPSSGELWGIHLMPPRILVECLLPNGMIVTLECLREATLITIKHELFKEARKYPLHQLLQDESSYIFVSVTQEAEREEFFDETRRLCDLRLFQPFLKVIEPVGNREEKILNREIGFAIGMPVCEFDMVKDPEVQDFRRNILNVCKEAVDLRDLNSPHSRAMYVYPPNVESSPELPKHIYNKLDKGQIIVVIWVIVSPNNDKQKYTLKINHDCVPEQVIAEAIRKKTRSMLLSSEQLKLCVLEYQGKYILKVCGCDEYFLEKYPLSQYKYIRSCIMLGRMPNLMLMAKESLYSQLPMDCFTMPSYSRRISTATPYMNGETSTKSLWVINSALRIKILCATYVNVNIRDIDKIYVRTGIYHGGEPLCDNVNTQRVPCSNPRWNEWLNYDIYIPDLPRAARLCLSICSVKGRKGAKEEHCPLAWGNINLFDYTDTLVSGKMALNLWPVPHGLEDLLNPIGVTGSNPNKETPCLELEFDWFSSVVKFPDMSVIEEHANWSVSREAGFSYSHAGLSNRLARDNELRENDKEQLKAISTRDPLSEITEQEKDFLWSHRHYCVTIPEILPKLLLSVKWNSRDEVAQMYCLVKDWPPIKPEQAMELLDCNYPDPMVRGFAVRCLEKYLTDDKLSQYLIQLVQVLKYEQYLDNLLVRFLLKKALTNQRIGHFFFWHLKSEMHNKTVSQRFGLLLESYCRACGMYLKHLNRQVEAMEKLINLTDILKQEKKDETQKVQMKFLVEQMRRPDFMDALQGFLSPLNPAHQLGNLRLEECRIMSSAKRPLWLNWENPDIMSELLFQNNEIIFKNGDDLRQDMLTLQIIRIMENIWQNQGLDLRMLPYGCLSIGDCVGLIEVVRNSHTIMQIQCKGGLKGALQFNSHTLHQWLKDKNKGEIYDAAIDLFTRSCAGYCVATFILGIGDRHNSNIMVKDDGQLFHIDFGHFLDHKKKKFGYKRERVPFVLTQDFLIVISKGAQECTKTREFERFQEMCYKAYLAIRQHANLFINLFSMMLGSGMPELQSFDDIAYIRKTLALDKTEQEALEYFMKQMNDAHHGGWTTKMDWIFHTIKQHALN
T1 sequence (P27986 whole entry partner): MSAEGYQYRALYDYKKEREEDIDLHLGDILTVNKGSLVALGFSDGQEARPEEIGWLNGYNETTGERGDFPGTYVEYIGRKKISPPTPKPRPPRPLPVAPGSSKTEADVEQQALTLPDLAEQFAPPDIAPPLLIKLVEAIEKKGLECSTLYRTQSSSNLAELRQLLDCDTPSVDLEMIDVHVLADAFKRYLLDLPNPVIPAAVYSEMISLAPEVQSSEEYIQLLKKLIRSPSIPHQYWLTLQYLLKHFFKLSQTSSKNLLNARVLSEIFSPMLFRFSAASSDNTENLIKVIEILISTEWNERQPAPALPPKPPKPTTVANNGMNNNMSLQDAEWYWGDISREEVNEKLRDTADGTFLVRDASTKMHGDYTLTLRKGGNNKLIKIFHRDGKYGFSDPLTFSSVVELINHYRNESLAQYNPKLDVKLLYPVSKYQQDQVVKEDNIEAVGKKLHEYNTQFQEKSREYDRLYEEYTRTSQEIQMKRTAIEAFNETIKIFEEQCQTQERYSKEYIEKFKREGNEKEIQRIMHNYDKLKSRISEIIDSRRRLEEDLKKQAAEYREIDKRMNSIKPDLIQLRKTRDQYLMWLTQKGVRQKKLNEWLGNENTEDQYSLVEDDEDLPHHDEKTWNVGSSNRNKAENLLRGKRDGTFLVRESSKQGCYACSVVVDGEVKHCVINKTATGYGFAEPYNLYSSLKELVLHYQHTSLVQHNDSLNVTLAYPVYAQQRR

| Compound | IC50 [µM] |
| --- | --- |
| c1ccc(CN2CCC(Oc3nc(-c4cccc5[nH]ncc45)nc(N4CCOCC4)n3)CC2)cc1 [Compound 1115, 4-(4-((1-benzylpiperidin-4-yl)oxy)-6-(1H-indazol-4-yl)-1,3,5-triazin-2-yl)morpholine] | < 5 |
| CNC(=O)CNc1nc(-c2cccc(O)c2)nc(N2CCOCC2)n1 [Compound 1168, 2-((4-(3-hydroxyphenyl)-6-morpholino-1,3,5-triazin-2-yl)amino)-N-methylacetamide] | < 5 |
| CN(C)C(=O)c1ccc(Oc2nc(-c3cnc(N)s3)nc(N3CCOCC3)n2)cc1 [Compound 1004, 4-14-{[4-1-(2-27-amino-1,3-thiazol-5-yl)-6-5-(morpholin-4-yl)-1,3,5-triazin-2-yl]oxy}-N,N-dimethylbenzamide] | < 5 |
| CN(C)C(=O)c1ccc(Oc2nc(-c3cccc4[nH]nnc34)nc(N3CCOCC3)n2)cc1 [Compound 1050, 4-14-{[4-1-(1H-1,2,3-benzotriazol-4-yl)-6-5-(morpholin-4-yl)-1,3,5-triazin-2-yl]oxy}-N,N-dimethylbenzamide] | > 5 |
| Nc1nc(-c2ccccc2)nc(N2CCOCC2)n1 [Compound 1162, 4-0-(morpholin-4-yl)-6-4-phenyl-1,3,5-triazin-2-amine] | > 5 |
| CN(C)C(=O)c1ccc(Oc2nc(-c3cccc4[nH]ncc34)nc(N3CC(C(N)=O)C3)n2)cc1 [Compound 1047, 1-7-{4-1-[4-11-(dimethylcarbamoyl)phenoxy]-6-5-(1H-indazol-4-yl)-1,3,5-triazin-2-yl}azetidine-3-carboxamide] | > 5 |
| CN(C)C(=O)c1ccc(Oc2nc(-c3cccc(O)c3)nc(N3CCOCC3)n2)cc1 [Compound 1030, 4-14-{[4-1-(3-21-hydroxyphenyl)-6-5-(morpholin-4-yl)-1,3,5-triazin-2-yl]oxy}-N,N-dimethylbenzamide] | < 5 |
| Cc1cc(-c2nc(Oc3ccc(C(=O)N(C)C)cc3)nc(N3CCOCC3)n2)cnc1N [Compound 1018, 4-14-{[4-1-(6-27-amino-5-26-methylpyridin-3-yl)-6-5-(morpholin-4-yl)-1,3,5-triazin-2-yl]oxy}-N,N-dimethylbenzamide] | < 5 |
| CN(C)C(=O)c1ccc(Oc2nc(-c3ccc(N)nc3)nc(N3C4CCC3COC4)n2)cc1 [Compound 1012, 4-9-{[4-1-(6-12-aminopyridin-3-yl)-6-5-{3-oxa-8-azabicyclo[3.2.1]octan-8-yl}-1,3,5-triazin-2-yl]oxy}-N,N-dimethylbenzamide] | < 5 |
| CS(=O)(=O)N1CCC(COc2nc(-c3cccc4[nH]ncc34)nc(N3CCOCC3)n2)CC1 [Compound 1096, 4-(4-(1H-indazol-4-yl)-6-((1-(methylsulfonyl)piperidin-4-yl)methoxy)-1,3,5-triazin-2-yl)morpholine] | < 5 |
| CN(C)C(=O)c1ccc(Oc2nc(-c3cccc4[nH]ncc34)nc(N3CCCOCC3)n2)cc1 [Compound 1073, 4-7-{[4-5-(1H-indazol-4-yl)-6-3-(1,4-oxazepan-4-yl)-1,3,5-triazin-2-yl]oxy}-N,N-dimethylbenzamide] | < 5 |
| C[C@H](Nc1nc(-c2cccc(NS(C)(=O)=O)c2)nc(N2CCOCC2)n1)C(=O)N1CCN(S(C)(=O)=O)CC1 [Compound 1066, N-[3-16-(4-1-{[(2S)-1-(4-30-methanesulfonylpiperazin-1-yl)-1-oxopropan-2-yl]amino}-6-2-(morpholin-4-yl)-1,3,5-triazin-2-yl)phenyl]methanesulfonamide] | > 5 |
| CN(C)Cc1ccc(Oc2nc(-c3cccc4[nH]ncc34)nc(N3CCOCC3)n2)cc1 [Compound 1119, 1-(4-((4-(1H-indazol-4-yl)-6-morpholino-1,3,5-triazin-2-yl)oxy)phenyl)-N,N-dimethylmethanamine] | < 5 |
| Fc1ccc(-c2nc(N3CCNCC3)nc(N3CCOCC3)n2)cn1 [Compound 1127, 2-1-(6-16-fluoropyridin-3-yl)-4-5-(morpholin-4-yl)-6-3-(piperazin-1-yl)-1,3,5-triazine] | < 5 |
